Test results from patent US20240360151A1 (SANOFI, priority 2023, published 2024).

These molecules were tested against T1, NLRP3 inflammasome (Homo sapiens, UniProt Q96P20) (assay: IL-1β secretion assay (NLRP3 IC50) in LPS-primed, nigericin-activated THP-1 cells, HTRF). Settings: monocytic THP-1 cells; LPS 10 ng/mL 3 h priming, then compound + nigericin 10 μM 2 h; relative IC50, 10 concentrations, geometric mean.
T1 construct: endogenous in cells; host or cells: THP-1 monocytic cells
Format: cell-based
Method in brief: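 IL-1β in supernatant read by HTRF after 2 h co-incubation of compound (0.1% DMSO, 10 concentrations, 1:3 series) with nigericin at 10 μM final, following 3 h LPS (10 ng/mL) priming of THP-1 monocytes at 37° C. Inhibition normalised to unactivated and no-compound controls; geometric-mean relative IC50 from 4-parameter logistic model.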

T1 sequence (Q96P20 whole entry): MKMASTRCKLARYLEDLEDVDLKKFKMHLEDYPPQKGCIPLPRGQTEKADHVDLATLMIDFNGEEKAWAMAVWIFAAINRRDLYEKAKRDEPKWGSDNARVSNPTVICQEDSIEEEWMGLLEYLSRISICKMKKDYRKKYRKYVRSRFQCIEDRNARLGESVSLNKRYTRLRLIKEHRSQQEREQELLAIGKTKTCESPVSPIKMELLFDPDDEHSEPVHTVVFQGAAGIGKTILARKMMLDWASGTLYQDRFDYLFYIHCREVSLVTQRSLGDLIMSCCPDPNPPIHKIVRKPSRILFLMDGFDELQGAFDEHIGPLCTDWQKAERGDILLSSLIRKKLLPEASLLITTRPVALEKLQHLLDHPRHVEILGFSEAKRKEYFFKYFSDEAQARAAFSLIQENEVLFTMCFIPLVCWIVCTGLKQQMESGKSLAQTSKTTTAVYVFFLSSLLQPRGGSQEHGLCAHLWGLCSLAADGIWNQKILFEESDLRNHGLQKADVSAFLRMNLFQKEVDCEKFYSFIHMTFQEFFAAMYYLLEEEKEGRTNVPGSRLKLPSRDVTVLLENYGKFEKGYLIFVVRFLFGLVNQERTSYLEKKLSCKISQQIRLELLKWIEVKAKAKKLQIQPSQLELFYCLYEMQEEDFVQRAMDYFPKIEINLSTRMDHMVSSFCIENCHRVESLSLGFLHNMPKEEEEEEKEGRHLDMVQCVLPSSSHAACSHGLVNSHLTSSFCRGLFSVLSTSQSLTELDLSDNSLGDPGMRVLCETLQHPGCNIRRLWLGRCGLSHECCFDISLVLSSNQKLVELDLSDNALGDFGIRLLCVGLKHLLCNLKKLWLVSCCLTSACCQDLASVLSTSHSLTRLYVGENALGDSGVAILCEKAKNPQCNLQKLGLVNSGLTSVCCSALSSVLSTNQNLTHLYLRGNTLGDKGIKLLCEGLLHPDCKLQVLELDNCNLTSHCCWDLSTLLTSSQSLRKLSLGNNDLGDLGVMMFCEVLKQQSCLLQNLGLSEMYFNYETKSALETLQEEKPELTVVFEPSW

Row | Structure (SMILES) | IC50 [µM]
1 | Cc1cc(C)c(O)c(-c2ccc(N3CCO[C@H](CO)C3)nn2)c1 [Example 152, 2-[6-[(2S)-2-(hydroxymethyl)morpholin-4-yl]pyridazin-3-yl]-4,6-dimethylphenol] | 5.98
2 | CNC(=O)[C@@H]1CN(c2ccc(-c3c(C)cc(C)cc3O)nn2)CCO1 [Example 166, (2S)-4-[6-(2-hydroxy-4,6-dimethylphenyl)pyridazin-3-yl]-N-methylmorpholine-2-carboxamide] | 3.31
3 | CCN1CCO[C@@H]2CN(c3ccc(-c4c(C)cc(C)cc4O)nn3)C[C@H]21 [Example 168, 2-[6-[(4aR,7aR)-4-ethyl-2,3,4a,5,7,7a-hexahydropyrrolo[3,4-b][1,4]oxazin-6-yl]pyridazin-3-yl]-3,5-dimethylphenol] | 3.38
4 | Cc1cc(C)c(-c2ccc(N3C[C@H](O)CO3)nn2)c(O)c1 [Example 179, (4S)-2-[6-(2-hydroxy-4,6-dimethyl-phenyl)pyridazin-3-yl]isoxazolidin-4-ol] | 0.897
5 | Cc1cc(C)c(-c2ccc(N3CCO[C@H](C(N)=O)C3)nn2)c(O)c1 [Example 181, (2S)-4-[6-(2-hydroxy-4,6-dimethylphenyl)pyridazin-3-yl]morpholine-2-carboxamide] | 1.39
6 | CNC(=O)[C@H]1CN(c2ccc(-c3c(C)cc(C)cc3O)nn2)CCO1 [Example 182, (2R)-4-[6-(2-hydroxy-4,6-dimethylphenyl)pyridazin-3-yl]-N-methylmorpholine-2-carboxamide] | 1.65
7 | Cc1cc(C)c(-c2ccc(N3CCO[C@@H](C(N)=O)C3)nn2)c(O)c1 [Example 183, (2R)-4-[6-(2-hydroxy-4,6-dimethylphenyl)pyridazin-3-yl]morpholine-2-carboxamide] | 0.685
8 | Cc1cc(C)c(-c2ccc(N3CCO[C@@H](C(=O)N(C)C)C3)nn2)c(O)c1 [Example 184, (2R)-4-[6-(2-hydroxy-4,6-dimethylphenyl)pyridazin-3-yl]-N,N-dimethylmorpholine-2-carboxamide] | 0.66
9 | Cc1cc(C)c(-c2ccc(N3C[C@@H]4NCCO[C@H]4C3)nn2)c(O)c1 [Example 185, 2-[6-[(4aS,7aS)-3,4,4a,5,7,7a-hexahydro-2H-pyrrolo[3,4-b][1,4]oxazin-6-yl]pyridazin-3-yl]-3,5-dimethylphenol] | 3.22
10 | Cc1cc(C)c(-c2nnc(N3CCO[C@H](CO)C3)cc2CO)c(O)c1 [Example 186, 2-[4-(hydroxymethyl)-6-[(2S)-2-(hydroxymethyl)morpholin-4-yl]pyridazin-3-yl]-3,5-dimethyl-phenol] | 1.05
11 | Cc1ccc(O)c(-c2ccc(N3CCO[C@H](CO)C3)nn2)c1C [Example 191, 2-[6-[(2S)-2-(hydroxymethyl)morpholin-4-yl]pyridazin-3-yl]-3,4-dimethylphenol] | 1.12
12 | CCN1CCOCC2(C1)CN(c1ccc(-c3c(C)cc(C)cc3O)nn1)CCO2 (stereo not drawn) [Example 208, 2-[6-(8-ethyl-1,11-dioxa-4,8-diazaspiro[5.6]dodecan-4-yl)pyridazin-3-yl]-3,5-dimethylphenol] | 0.972
13 | Cc1cc(C)c(-c2ccc(N3CCOc4cnccc43)nn2)c(O)c1 [Example 215, 2-[6-(2,3-dihydropyrido[3,4-b][1,4]oxazin-1-yl)pyridazin-3-yl]-3,5-dimethyl-phenol] | 1.46
14 | CCN1CCN(c2ccc(-c3c(C)cc(C)cc3O)nn2)CC12CCOC2 (stereo not drawn) [Example 227, 2-[6-(6-ethyl-2-oxa-6,9-diazaspiro[4.5]decan-9-yl)pyridazin-3-yl]-3,5-dimethylphenol] | 1.19
15 | Cc1cc(C)c(-c2ccc(N3CCCc4c3ccnc4O)nn2)c(O)c1 [Example 242, 1-[6-(2-hydroxy-4,6-dimethyl-phenyl)pyridazin-3-yl]-3,4-dihydro-2H-1,6-naphthyridin-5-ol] | 2.12
16 | Cc1cc(C)c(-c2ccc(N3CCc4cccc(O)c43)nn2)c(O)c1 [Example 253, 1-[6-(2-hydroxy-4,6-dimethyl-phenyl)pyridazin-3-yl]indolin-7-ol] | 6.75
17 | Cc1cc(C(F)(F)F)cc(O)c1-c1ccc(N2CC[C@H](O)CC2=O)nn1 [Example 286, (4S)-4-hydroxy-1-[6-[2-hydroxy-6-methyl-4-(trifluoromethyl)phenyl]pyridazin-3-yl]piperidin-2-one] | 0.151
18 | Cc1cc(C(F)(F)F)cc(O)c1-c1ccc(N2CC[C@@H](CO)CC2=O)nn1 [Example 292, (4R)-4-(hydroxymethyl)-1-[6-[2-hydroxy-6-methyl-4-(trifluoromethyl)phenyl]pyridazin-3-yl]piperidin-2-one] | 0.265

Row | Structure (SMILES) | IC50 [µM]
19 | Cc1cc(C)c(-c2ccc(N3CCO[C@H](CS)C3)nn2)c(O)c1 [Example 303, 3,5-dimethyl-2-[6-[(2S)-2-(sulfanylmethyl)morpholin-4-yl]pyridazin-3-yl]phenol] | 3.87
20 | Cc1cc(C)c(-c2ccc(N3CCO[C@@H](CS)C3)nn2)c(O)c1 [Example 305, 3,5-dimethyl-2-[6-[(2R)-2-(sulfanylmethyl)morpholin-4-yl]pyridazin-3-yl]phenol] | 2.82
21 | Cc1ccc(-c2nnc(N3CCO[C@H]4CCN(C)C[C@H]43)cc2C(F)F)c(O)c1 [Example 306, 2-[6-[(4aR,8aS)-6-methyl-3,4a,5,7,8,8a-hexahydro-2H-pyrido[4,3-b][1,4]oxazin-4-yl]-4-(difluoromethyl)pyridazin-3-yl]-5-methyl-phenol] | 1.51
22 | Cc1cc(Cl)cc(O)c1-c1ccc(N2CCO[C@@H]3CCNC[C@@H]32)nn1 [Example 309, 2-[6-[(4aS,8aR)-2,3,4a,5,6,7,8,8a-octahydropyrido[4,3-b][1,4]oxazin-4-yl]pyridazin-3-yl]-5-chloro-3-methyl-phenol] | 0.249
23 | Cc1cc(C)c(-c2ccc(N3CCO[C@H]4CCN(C)C[C@H]43)nn2)c(O)c1 [Example 310, 2-[6-[(4aR,8aS)-6-methyl-3,4a,5,7,8,8a-hexahydro-2H-pyrido[4,3-b][1,4]oxazin-4-yl]pyridazin-3-yl]-3,5-dimethyl-phenol] | 0.496
24 | Cc1cc(C)c(-c2ccc(N3CCO[C@@H]4CCNC[C@@H]43)nn2)c(O)c1 [Example 315, 2-[6-[(4aS,8aR)-2,3,4a,5,6,7,8,8a-octahydropyrido[4,3-b][1,4]oxazin-4-yl]pyridazin-3-yl]-3,5-dimethyl-phenol] | 0.511
25 | Cc1cc(C(F)(F)F)cc(O)c1-c1ccc(N2CC[C@@H](O)CC2=O)nn1 [Example 316, (4R)-4-hydroxy-1-[6-[2-hydroxy-6-methyl-4-(trifluoromethyl)phenyl]pyridazin-3-yl]piperidin-2-one] | 0.287
26 | CCN1CCOC2(COCCN(c3ccc(-c4c(C)cc(C)cc4O)nn3)C2)C1 (stereo not drawn) [Example 317, 2-[6-(4-ethyl-1,11-dioxa-4,8-diazaspiro[5.6]dodecan-8-yl)pyridazin-3-yl]-3,5-dimethyl-phenol] | 3
27 | Cc1cc(Cl)cc(O)c1-c1ccc(N2CCO[C@H](CF)C2)nn1 [Example 339, 5-chloro-2-[6-[(2S)-2-(fluoromethyl)morpholin-4-yl]pyridazin-3-yl]-3-methyl-phenol] | 0.133
28 | CCN1CC[C@H]2OCCN(c3ccc(-c4c(C)cc(C(F)(F)F)cc4O)nn3)[C@@H]2C1 [Example 344, 2-[6-[(4aR,8aR)-6-ethyl-3,4a,5,7,8,8a-hexahydro-2H-pyrido[4,3-b][1,4]oxazin-4-yl]pyridazin-3-yl]-3-methyl-5-(trifluoromethyl)phenol] | 0.223
29 | OC[C@@H]1CN(c2cc(C(F)F)c(-c3ccc4c(c3O)CCC4)nn2)CCO1 [Example 345, 5-[4-(difluoromethyl)-6-[(2S)-2-(hydroxymethyl)morpholin-4-yl]pyridazin-3-yl]indan-4-ol] | 0.125
30 | CN1CC[C@H]2OCCN(c3cc(C(F)F)c(-c4cccc(F)c4O)nn3)[C@H]2C1 [Example 351, 2-[6-[(4aS,8aR)-6-methyl-3,4a,5,7,8,8a-hexahydro-2H-pyrido[4,3-b][1,4]oxazin-4-yl]-4-(difluoromethyl)pyridazin-3-yl]-6-fluoro-phenol] | 0.167
31 | Cc1cc(C)c(-c2ccc(N3CCO[C@@H]4CCN(CC(F)(F)F)C[C@@H]43)nn2)c(O)c1 [Example 355, 2-[6-[(4aS,8aR)-6-(2,2,2-trifluoroethyl)-3,4a,5,7,8,8a-hexahydro-2H-pyrido[4,3-b][1,4]oxazin-4-yl]pyridazin-3-yl]-3,5-dimethyl-phenol] | 1.17
32 | Cc1cc(C(F)(F)F)cc(O)c1-c1ccc(N2CCOc3c[nH]nc32)nn1 [Example 360, 2-[6-(5,6-dihydro-2H-pyrazolo[4,3-b][1,4]oxazin-7-yl)pyridazin-3-yl]-3-methyl-5-(trifluoromethyl)phenol] | 0.42
33 | Cc1cc(C)c(-c2ccc(N3CCOc4ccncc43)nn2)c(O)c1 [Example 362, 2-[6-(2,3-dihydropyrido[4,3-b][1,4]oxazin-4-yl)pyridazin-3-yl]-3,5-dimethyl-phenol] | 3.54
34 | CC(=O)N1CC[C@H]2CCN(c3ccc(-c4c(C)cc(C(F)(F)F)cc4O)nn3)[C@H]2C1 [Example 369, 1-[(3aR,7aR)-1-[6-[2-hydroxy-6-methyl-4-(trifluoromethyl)phenyl]pyridazin-3-yl]-3,3a,4,5,7,7a-hexahydro-2H-pyrrolo[2,3-c]pyridin-6-yl]ethanone] | 0.476
35 | CC(=O)N1CC[C@@H]2CCN(c3ccc(-c4c(C)cc(C(F)(F)F)cc4O)nn3)[C@@H]2C1 [Example 370, 1-[(3aS,7aS)-1-[6-[2-hydroxy-6-methyl-4-(trifluoromethyl)phenyl]pyridazin-3-yl]-3,3a,4,5,7,7a-hexahydro-2H-pyrrolo[2,3-c]pyridin-6-yl]ethanone] | 1.27
36 | CC(=O)N1CC[C@H]2CCN(c3ccc(-c4c(C)cc(C(F)(F)F)cc4O)nn3)[C@H]2C1 [Example 395, 1-[(3aR,7aR)-1-[6-[2-hydroxy-6-methyl-4-(trifluoromethyl)phenyl]pyridazin-3-yl]-3,3a,4,5,7,7a-hexahydro-2H-pyrrolo[2,3-c]pyridin-6-yl]ethanone] | 0.234
